Assay results taken from paper PMC9780942, “Antimicrobial Activity and Immunomodulatory Properties of Acidocin A, the Pediocin-like Bacteriocin with the Non-Canonical Structure” (Membranes, 2022).
Positions of bridges follow the written chain, without caps; N, C: chain ends. No end group written: not given here.

Tests used:
[1] = system: primary CD14+ blood monocytes; experiment: Cytokine response by human monocytes, multiplex xMAP; type: cell-based; conditions: 2 µM peptide, 24 h, supernatant; for MCP-3: untreated control 52.14; for TNFa: untreated control 67.34; for PDGF-AB/BB: untreated control 86.09; for MIG: untreated control 205.59
E. coli XDR CI 1057 = type: cell-based; conditions: XDR CI 1057, 24 h
Experimental: (§1) Antibacterial activity of recombinant bacteriocins against a number of Gram-positive and Gram-negative bacteria (Table S2) was determined by the method of two-fold serial dilutions in a liquid medium. Two-fold serial dilutions of bacteriocins were prepared in sterile 96-well flat-bottom polystyrene microplates (Eppendorf, Hamburg, Germany) (Cat. No. 0030730.011) in a volume of 50 µL of sterile 0.1% bovine serum albumin (BSA) (SERVA Electrophoresis GmbH, Heidelberg, Germany) to prevent non-specific sorption of peptides to the surface of the plate wells [23]. Mid-log phase bacterial cultures were diluted with the 2x Mueller-Hinton broth (MHB) (Sigma-Aldrich, St. Louis, MO, USA) to a final cell concentration of 10^6 colony forming units (CFU) per mL. To determine the activity of bacteriocins against Listeria and Enterococci, 3% tryptic soy broth (TSB) (Merck-Millipore, Burlington, MA, USA) was used instead of MHB. Aliquots of 50 μL of diluted bacterial suspensions were added to each well of the plate, which was then incubated at 37 °C and 950 rpm for 24 h using thermostatable plate shaker PST-60HL-4 (Biosan, Riga, Latvia). As a negative control, 50 µL of the sterile growth medium (2xMHB or 6% TSB) was added to the wells containing 50 µL of 0.1% BSA. The values of the minimum inhibitory concentrations (MIC) were determined as the minimum concentration of the peptide, at which there was no visible growth of bacterial culture. Incubation for 2 h with 20 µg/mL chromogenic substrate resazurin (Sigma-Aldrich, St. Louis, MO, USA) was used to detect viable bacterial cells if they were difficult to visually detect. To study the effect of inorganic salts on the antimicrobial activity of bacteriocins, antibacterial activity assay was carried out in MHB medium supplemented with 0.9% NaCl.

B. licheniformis B-511 = type: cell-based; conditions: 24 h
Experimental: as §1

[2] = system: E. coli ML-35p cytoplasmic membrane; experiment: Cytoplasmic membrane permeability assay with ONPG; type: cell-based; conditions: PBS pH 7.4 with NaCl, 35 °C, absorbance 405 nm, three independent experiments
Experimental: The ability of the peptides to disrupt the integrity of bacterial membranes was assessed using chromogenic substrates that are unable to enter the intact cell. For these assays, E. coli strain ML-35p was chosen that constitutively expresses β-lactamase (secreted into the periplasmic space), β-galactosidase (that is active in cytoplasm), and lacks lactose permease. Nitrocefin, which is a substrate for lactamase, served as an indicator of increased outer membrane permeability. o-Nitrophenyl-β-D-galactopyranoside (ONPG), a substrate for […], was used to assess the integrity of the cytoplasmic membrane. The bacterial cultures were grown to stationary phase in 3% TSB medium at 37 °C overnight. The cells were washed three times with cold 10 mM phosphate-buffered saline (PBS), pH 7.4 ([…], 2.7 mM KCl, 10 mM Na2HPO4, 1.76 mM KH2PO4), and diluted to the concentration of 3.3 × 10^7 CFU/mL with 10 mM PBS (pH 7.4), containing increased concentration of NaCl (1.2%, or 205 mM) and dissolved nitrocefin (Merck-Millipore, Burlington, MA, USA) or ONPG (AppliChem GmbH, Darmstadt, Germany). […] The plate was incubated at 35 °C, 500 rpm, and the absorbance of the hydrolysis products of ONPG or nitrocefin was measured spectrophotometrically at regular intervals at 405 nm or 492 nm, respectively, using AF2200 microplate reader (Eppendorf, Hamburg, Germany). […]

L. monocytogenes EGD [3] = type: cell-based, Listeria monocytogenes; conditions: 24 h
Experimental: as §1

L. monocytogenes EGD [4] = experiment: Agar diffusion (spot-on-lawn) assay; type: cell-based, Listeria monocytogenes; conditions: 1–10 µg peptide spotted on 3% TSB agar, 37 °C, 24 h
Experimental: Additionally, the activity of bacteriocins against L. monocytogenes EGD was qualitatively determined using agar diffusion (“spot-on-lawn”) assay. An amount of 5 µL of water solutions containing 1–10 µg of purified bacteriocins were applied to agar plates containing 3% TSB medium with mid-log phase culture of L. monocytogenes EGD diluted to a OD600 of about 0.001 (≅7 × 10^5 CFU/mL) and incubated overnight at 37 °C for 24 h. Antibiotic tetracycline (0.5 µg) was used as a positive control. The formation of visible zones of bacterial growth inhibition in places where bacteriocins were added indicated the presence of antimicrobial activity.

TYYGNGVSCNKKGCSVDWGKAISIIGNNSAANLATGGAAGWKS (disulfide 9-14) [Avicin A]
IL-1b ([1]; untreated control 2.28): 17.13 pg/mL
IL-6 ([1]; untreated control 4.48): 2787 pg/mL
VEGFa ([1]; untreated control 5.44): <1.52↓ pg/ml
MIP-1a ([1]; untreated control 11.73): 6628 pg/mL
PDGF-AA ([1]; untreated control 12.5): 10.87 pg/mL
sCD40L ([1]; untreated control 15.86): 45.71 pg/mL
IP-10 ([1]; untreated control 19.67): 21.71 pg/mL
MIP-1b ([1]; untreated control 34.63): 3805 pg/mL
MCP-3 [1]: 227 pg/mL
MCP-3 ([1]; listed as AviA): 227.15 pg/mL
TNFa [1]: 17,982 pg/ml
TNFa ([1]; listed as AviA): 17982 pg/mL
PDGF-AB/BB [1]: 99 pg/mL
PDGF-AB/BB ([1]; listed as AviA): 99.49 pg/mL
MIG [1]: 729 pg/mL
MIG ([1]; listed as AviA): 729.91 pg/mL
IL-1RA ([1]; untreated control 261.2): 253.61 pg/mL
GROa ([1]; untreated control 311.89): 4832 pg/mL
MDC ([1]; untreated control 463.06): 2303 pg/mL
MCP-1 ([1]; untreated control 464.5): 3950 pg/mL
IL-8 ([1]; untreated control 12488): >36420↑ pg/ml
IL-7 ([1]; untreated control <0.20): <0.20↓ pg/ml
IL-18 ([1]; untreated control <0.20): <0.20↓ pg/ml
IL-5 ([1]; untreated control <0.26): <0.26↓ pg/ml
IL-4 ([1]; untreated control <0.33): <0.33↓ pg/ml
TNFb ([1]; untreated control <0.49): 7.81 pg/mL
TGF-a ([1]; untreated control <0.53): 2.38 pg/mL
IL-3 ([1]; untreated control <0.68): <0.68↓ pg/ml
IL-2 ([1]; untreated control <0.85): 0.86 pg/mL
IL-10 ([1]; untreated control <1.23): 4.28 pg/mL
FLT-3L ([1]; untreated control <1.35): <1.35↓ pg/ml
GM-CSF ([1]; untreated control <1.39): 12.72 pg/mL
IL-15 ([1]; untreated control <1.45): 1.55 pg/mL
IL-12 (p70) ([1]; untreated control <1.58): <1.58↓ pg/ml
IFNg ([1]; untreated control <1.79): <1.79↓ pg/ml
IL-17A ([1]; untreated control <2.00): <2.00↓ pg/ml
IL-1a ([1]; untreated control <2.78): 10.22 pg/mL
RANTES ([1]; untreated control <2.79): 638.27 pg/mL
IL-13 ([1]; untreated control <2.90): 7.71 pg/mL
G-CSF ([1]; untreated control <3.18): 190 pg/mL
IL-12 (p40) ([1]; untreated control <3.18): 19.93 pg/mL
G-CSF ([1]; untreated control <3.18, listed as AviA): 190.3 pg/mL
IFNa2 ([1]; untreated control <3.89): 4.69 pg/mL
Eotaxin ([1]; untreated control <4.09): <4.09↓ pg/ml
IL-9 ([1]; untreated control <4.87): 6.5 pg/mL
EGF ([1]; untreated control <4.94): 6.51 pg/mL
IL-22 ([1]; untreated control <7.95): 15.81 pg/mL
IL-27 ([1]; untreated control <11.45): 31.07 pg/mL
FGF-2 ([1]; untreated control <12.00): 33.02 pg/mL
IL-17F ([1]; untreated control <14.61): <14.61↓ pg/ml
Fractalkine ([1]; untreated control <19.20): <19.20↓ pg/ml
IL-17E/IL-25 ([1]; untreated control <19.97): <19.97↓ pg/ml
M-GSF ([1]; untreated control <23.43): 261.13 pg/mL
Minimum Inhibitory Concentration (E. coli XDR CI 1057): >32 µM
Minimum Inhibitory Concentration (B. licheniformis B-511): >32 µM
Effect on cytoplasmic membrane integrity (ONPG hydrolysis kinetics) [2]: melittin >> acidocin A ≈ pediocin box mutants > peptides without a disulfide bond > avicin A >> AviA(T)
Minimum Inhibitory Concentration (L. monocytogenes EGD [3]): <0.125 µM
Antimicrobial activity, zones of growth inhibition (qualitative) (L. monocytogenes EGD [4]): high activity
Antimicrobial activity, zones of growth inhibition (qualitative) (L. monocytogenes EGD [4]; listed as avicin A): presence of such activity
